{"source": "patent US9072751B2", "about": "“Na/K-ATPase ligand” (priority 2006, dated 2015)", "key": {"SYF+Src line": {"tested_on": "SYF+Src line", "test": "In vitro wound healing (scrape injury) in SYF+Src fibroblasts", "assay_type": "cell-based, mouse", "settings": "12 hour pretreatment", "method": "Next, we examined whether wound healing might be advantageously impacted by cardiotonic steroids. We grew a mouse fibroblast cell line, the SYF+Src line to confluence and make injuries by scraping with a pipette tip.\nRepresentative images from fibroblasts at 3, 7 and 12 hours following injury. Quantification of wound closure from fibroblast cultures. Data represents N=6 separate pairs of experiments, each of which involves 3 determinations at each time point. Data shown as mean+/−SEM. **<0.01. We proposed to enhance skin fibroblast collagen production by topical or injected administration of cardiotonic steroids and prevent or reverse aging related loss of skin tone."}, "[1]": {"tested_on": "TGF-β, Smad 2/3, Smad 4, pSmad 2/3", "test": "TGF-β, Smad 2/3, Smad 4, pSmad 2/3 expression in fibroblasts (Western blot)", "assay_type": "cell-based, rat", "settings": "24 hours, 1 and 10 nM", "description": "To further examine the molecular mechanisms by which cardiotonic steroids induce collagen production in fibroblasts, we examined the effects of MBG on TGF-β expression, as well as the expression of Smad 2/3, Smad 4, and pSmad 2/3. […] Next, we examined whether TGF-β induced collagen production and whether there was synergism between TGF-β and MBG. […] However, it is important to point out that we never completely serum starve the primary cultures, and because serum is always present, some TGF-β is always present.\n(§1) The effect of 24 hours of MBG (1 and 10 nM) on TGF-β, Smad 2/3, Smad 4, and pSmad 2/3 expression determined by Western blot. b and c, effects of 24 hours of MBG (10 nM), TGFβ(5 ng/mL), and the TGF-β receptor antagonist SB431542 ([…] on procollagen-1 expression (Western blot) and radiolabeled proline incorporation, respectively also were carried out. SB431542 was added 2 hours before exposure to either TGFβ or MBG (total of 26-hour exposure). Each bar represents the mean.+−.SEM of 6 to 8 determinations. *P<0.05, **P<0.01 vs. control."}, "[2]": {"tested_on": "left ventricular cardiac tissue", "test": "Cardiac tissue fibrosis, immunohistochemistry and Western blot after MBG infusion", "assay_type": "in vivo, Sprague-Dawley rats", "method": "Briefly, Sprague-Dawley rats weighing.apprxeq.250 g at the time of surgery were subjected to either sham surgery with no MBG infusion (Sham), sham surgery with placement of a minipump infusing MBG at 10 μg/kg per day (MBG), PNx, and PNx after immunization against MBG (PNx-IM). MBG of extremely high purity (>99%) was isolated from the venom of Bufa marinas by Kennedy et al. In addition to these maneuvers, a group of PNx animals was subjected to adrenalectomy as well (PNx-ADx).\n(determined after extraction on a C-18 column using DELPHIA as described previously), aldosterone (determined with ELISA kit 10004377, Cayman Chemical) and cardiac immunohistochemistry (vida infra) were assessed 4 weeks after surgery.\n(§2) Western blot analysis was performed on protein isolated from tissue homogenates, cell culture whole cell lysates, or nuclear extracts as described previously.\nImmunization against MBG attenuated these increases. Western blot analysis confirmed that PNx and MBG had 2 to 2.5 times the expression of procollagin-1 and a smooth muscle actin seen with sham-operated controls, whereas PNx-IM expression of both procollagen-1 and a smooth muscle actin was substantially less than that seen with PNx.\nOther data includes a representative pressure-volume loops obtained during vena cava occlusion from rats subjected to sham surgery (Sham), PNx, MBG infusion (MBG), and PNx after immunization against an MBG-albumin conjugate (PNx-IM). Regression lines fit to the end systolic pressure volume relationship (ESPVR, dotted line) and the end diastolic pressure volume relationship (EDPVR, solid line). B, ventricular cross-sectional areas determined from trichrome stains of tissue obtained from Sham, PNx, MBG, and PNx-IM animals (each group: N=8 animals, .apprxeq.100 measurements averaged to determine mean for each animal; data shown as the group mean.+−.SEM using N−8). Representative immunohistochemistry images of cardiac tissues stained for (c) collagen-1 and (d) a smooth muscle actin (aSMA). Counterstain for both c and d was hematoxlyn. Western blot and corresponding densitometric analysis for (e) procollagen-1 and (f) aSMA. Note that both collagen-1 and aSMA staining are much more intense in the PNx and MBG groups compared with Sham, whereas the PNx-IM staining is similar to Sham. Similarly, procollagen and aSMA expression are substantially higher in PNx and MBG animals compared with Sham, whereas immunization against MBG (PNx-IM) attenuated the changes seen with PNx. Data for e and f are derived from N=6 experiments in each group and shown as mean.+−.SEM. Sham refers to hearts isolated from control animals, PNx refers to PNx, MBG refers to MBG supplemented, and PNx-IM refers to animals immunized against MGB before PNx surgery. *P<0.05, **P<0.01 vs Sham, #P<0.01 vs PNx."}, "[3]": {"tested_on": "isolated cardiac fibroblasts", "assay_type": "cell-based, rat", "settings": "24 hours", "method": "Preparation of adult rat cardiac fibroblasts was performed as described previously by Brilla et al. with modifications.\nas §2\nRepresentative Western blot for procollagen and quantitative densitometric data obtained in response to different doses of (a) MBG (all N=10), (b) MBG 10 nM contrasted with different doses of ouabain (0.1 to 100 nM) and digoxin (10 nM; all N=8). c, ouabain sensitive Rb uptake as a function of MBG and ouabain concentration (N=4 at each concentration for both MBG and ouabain; data expressed as fraction of control). d, relative proline incorporation in the supernatant and matrix, both will and without collagenase digestion (total). Each group (controls and different doses of MBG) contains N=7 replicants. The difference between the total and after collagenase digestion is reported as collagen. The matrix is the sample that was obtained after removing supernatant and scraping the culture dish. e, mRNA for collagen 1 in MBG-treated (10 nM; N=8) or control (N=8) fibroblasts. f, procollagen stability after cycloheximide treatment. Time 0 is 1 hour after incubation with cycloheximide (20 μg/mL). […] Least-square regression line fit to control (CTL) and MBG data. Bars on quantitative graphs represent the mean.+−.SEM. *P<0.05 and **P<0.01 vs control.\nThe PP2, herbimycin AG1478, and N-acetyl cysteine were administered from 2 hours before the addition of MBG and continued throughout the 24 hours of MBG incubation (total of 26 hours). Each bar represents the mean.+−.SEM of n=8 experiments. b, effects of PP2 (1 μmol/L) and N-acetyle cysteine (2.5 mmol/L) on MBG (10 nM)-stimulated proline incorporation into collagen. Again, the PP2 an N-acetyl cysteine were added 2 hours before exposure to MBG. Each bar represents the mean.+−.SEM of N=5 experiments. c, effects of MBG 10 nM on procollagen content in SYF and SYF+ cells. Representative Western blots are shown above quantitative data. SYF blots loaded with 15 μg of protein and SYF+blots loaded with 10 μg of protein. Each bar represents the mean.+−SEM of N-6 determinations In each group. **[…] vs. control.\nas §1"}}, "note": "Read-outs that look alike come from different tables or passages of the source.", "data": [{"smiles": "C[C@]12CC[C@H](O)C[C@@]1(O)CC[C@@H]1[C@@H]2CC[C@]2(C)[C@@H](c3ccc(=O)oc3)C[C@H]3O[C@]132", "note": "[MBG, marinobufagenin]", "values": [{"measurement": "Closure of the experimental lesion", "setting": "SYF+Src line", "result": "markedly accelerated"}, {"measurement": "TGF-β, Smad 2/3, Smad 4, pSmad 2/3 expression in vitro", "setting": "[1]", "result": "did not observe significant changes"}, {"measurement": "Cardiac fibrosis", "setting": "[2]", "result": "caused cardiac fibrosis"}, {"measurement": "Collagen-1 and a smooth muscle actin staining (immunohistochemistry)", "setting": "[2]; heart tissue", "result": "marked increases"}, {"measurement": "Expression of a smooth muscle actin relative to sham-operated controls (Western blot)", "setting": "[2]; heart tissue", "result": "2 to 2.5", "unit": "times"}, {"measurement": "Expression of procollagin-1 relative to sham-operated controls (Western blot)", "setting": "[2]; heart tissue", "result": "2 to 2.5", "unit": "times"}, {"measurement": "Increase of procollagen content (Western blot)", "setting": "[3]; 10^−8 M", "result": "about 2 fold"}, {"measurement": "Increase of procollagen content (Western blot)", "setting": "[3]; 10^−9 M", "result": "about 2 fold"}]}]}
